From article PMC2748937 (Nature structural & molecular biology, 2009)

Key:
[1] = test system: Grb14 recruitment to the insulin receptor; type: cell-based; conditions: co-immunoprecipitation, data not shown
[2] = molecular target: T1, Grb14 RA-PH K252A (Homo sapiens, UniProt Q14449, K252A); experiment: Fluorescence-polarization phosphoinositide binding, Grb14 RA-PH K252A; conditions: Grb14 K252A vs WT
T1 sequence (Q14449 106-356 K252A limits assumed): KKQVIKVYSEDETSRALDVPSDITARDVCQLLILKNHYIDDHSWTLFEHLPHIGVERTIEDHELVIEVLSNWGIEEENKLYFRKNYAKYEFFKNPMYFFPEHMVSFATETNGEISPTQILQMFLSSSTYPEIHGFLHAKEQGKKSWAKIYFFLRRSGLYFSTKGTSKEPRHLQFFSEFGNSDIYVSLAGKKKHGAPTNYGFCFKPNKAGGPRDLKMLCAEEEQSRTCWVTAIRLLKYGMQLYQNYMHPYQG

[3] = molecular target: the molecule itself; experiment: crystal structure

COC[C@H]1OC(=O)c2coc3c2[C@@]1(C)C1=C(C3=O)[C@@H]2CCC(=O)[C@@]2(C)C[C@H]1OC(C)=O [wortmannin]
effect on recruitment of Grb14 to the insulin receptor [1]: PI-3K activity is not required for Grb14 recruitment to the receptor

CCCCCC(=O)O[C@H](COC(=O)CCCCCNC(=O)CCC1=C(C)C2=Cc3ccc(-c4ccc(OC)cc4)n3[B-](F)(F)[N+]2=C1C)COP(=O)(O)O[C@H]1[C@H](O)[C@@H](OP(=O)(O)O)[C@H](OP(=O)(O)O)[C@@H](OP(=O)(O)O)[C@H]1O [345P3, PI(3,4,5)P3]
decrease in binding affinity relative to wild-type [2]: more than three

B1: Grb10 RA-PH (residues 106-357 of human Grb10 isoform c (domain or fragment)
chain: GSHMAAAKQDVKVFSEDGTSKVVEILADMTARDLCQLLVYKSHSVDDNSWTLVEHHPHLGLERCLEDHELVVQVESTMASESKFLFRKNYAKYEFFKNPMNFFPEQMVTWSQQSNGSQTQLLQNFLNSSSSPEIQGFLHVKELGKKSWKKLYVCLRRSGLYCSTKGTSAAPRHLQLLADLEDSNIFSLIAGRKQYNAPTDHGLCIKPNKVRNETKELRLLCAEDEQTRTSWMTAFRLLKYGMLLYQNYRIPQQRKA
binding result [3]: binds
